Measured values reported in the kinase profiling compilation of Christmann-Franck et al. (2016).

What was measured:
Test in all cases: KINOMEscan competition binding
Settings in all cases: compound 2.0 µM
CDC2L2 (human) = CDC2L2 (human) (UniProt Q9UQ88)
HIPK1 (human) = HIPK1 (human) (UniProt Q86Z02)
SIK3 (human) = SIK3 (human) (UniProt Q9Y2K2)
FLT1 (human) = FLT1 (human) (UniProt P17948)
TNIK (human) = TNIK (human) (UniProt Q9UKE5)
[1] = test system: EGFR (human), P00533 [L861Q]
NEK1 (human) = NEK1 (human) (UniProt Q96PY6)
[2] = test system: LRRK2 (human), Q5S007 [G2019S]
PHKG2 (human) = PHKG2 (human) (UniProt P15735)
TLK1 (human) = TLK1 (human) (UniProt Q9UKI8)
AAK1 (human) = AAK1 (human) (UniProt Q2M2I8)
GRK1 (human) = GRK1 (human) (UniProt Q15835)
AXL (human) = AXL (human) (UniProt P30530)
HCK (human) = HCK (human) (UniProt P08631)
BLK (human) = BLK (human) (UniProt P51451)
[3] = test system: EGFR (human), P00533 [747-751 del / S ins]
MAP3K13 (human) = MAP3K13 (human) (UniProt O43283)
NUAK2 (human) = NUAK2 (human) (UniProt Q9H093)
STK32A (human) = STK32A (human) (UniProt Q8WU08)
CLK4 (human) = CLK4 (human) (UniProt Q9HAZ1)
NEK4 (human) = NEK4 (human) (UniProt P51957)
WEE2 (human) = WEE2 (human) (UniProt P0C1S8)
[4] = test system: PIK3CA (human), P42336 [C420R]
CAMK2D (human) = CAMK2D (human) (UniProt Q13557)
MLTK (human) = MLTK (human) (UniProt Q9NYL2)
MERTK (human) = MERTK (human) (UniProt Q12866)
[5] = test system: ABL1 (human), P00519 [M351T]
PRKD2 (human) = PRKD2 (human) (UniProt Q9BZL6)
PRKD3 (human) = PRKD3 (human) (UniProt O94806)
NEK6 (human) = NEK6 (human) (UniProt Q9HC98)
DMPK (human) = DMPK (human) (UniProt Q09013)
LATS2 (human) = LATS2 (human) (UniProt Q9NRM7)
MAP2K7 (human) = MAP2K7 (human) (UniProt O14733)
TESK1 (human) = TESK1 (human) (UniProt Q15569)
BTK (human) = BTK (human) (UniProt Q06187)
MAP4K5 (human) = MAP4K5 (human) (UniProt Q9Y4K4)
MAP3K9 (human) = MAP3K9 (human) (UniProt P80192)
EIF2AK1 (human) = EIF2AK1 (human) (UniProt Q9BQI3)
STK10 (human) = STK10 (human) (UniProt O94804)
LATS1 (human) = LATS1 (human) (UniProt O95835)
MAPK4 (human) = MAPK4 (human) (UniProt P31152)
TXK (human) = TXK (human) (UniProt P42681)
[6] = test system: KIT (human), P10721 [V559D]

BLK (human), sequence (P51451 whole entry, looked up): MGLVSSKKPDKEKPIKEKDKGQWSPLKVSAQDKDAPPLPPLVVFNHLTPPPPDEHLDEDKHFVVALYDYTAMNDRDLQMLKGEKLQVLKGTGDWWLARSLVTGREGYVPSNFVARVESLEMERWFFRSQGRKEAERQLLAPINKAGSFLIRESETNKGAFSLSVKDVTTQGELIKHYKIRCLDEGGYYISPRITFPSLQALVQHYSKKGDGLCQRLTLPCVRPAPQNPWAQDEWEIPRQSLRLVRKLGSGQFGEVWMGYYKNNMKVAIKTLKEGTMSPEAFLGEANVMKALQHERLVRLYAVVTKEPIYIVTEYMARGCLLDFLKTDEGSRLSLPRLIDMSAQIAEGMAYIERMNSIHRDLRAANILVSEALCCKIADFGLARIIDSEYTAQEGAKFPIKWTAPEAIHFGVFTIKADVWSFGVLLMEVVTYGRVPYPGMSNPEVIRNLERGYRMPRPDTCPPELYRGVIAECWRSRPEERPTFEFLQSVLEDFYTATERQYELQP
TXK (human), sequence (P42681 whole entry, looked up): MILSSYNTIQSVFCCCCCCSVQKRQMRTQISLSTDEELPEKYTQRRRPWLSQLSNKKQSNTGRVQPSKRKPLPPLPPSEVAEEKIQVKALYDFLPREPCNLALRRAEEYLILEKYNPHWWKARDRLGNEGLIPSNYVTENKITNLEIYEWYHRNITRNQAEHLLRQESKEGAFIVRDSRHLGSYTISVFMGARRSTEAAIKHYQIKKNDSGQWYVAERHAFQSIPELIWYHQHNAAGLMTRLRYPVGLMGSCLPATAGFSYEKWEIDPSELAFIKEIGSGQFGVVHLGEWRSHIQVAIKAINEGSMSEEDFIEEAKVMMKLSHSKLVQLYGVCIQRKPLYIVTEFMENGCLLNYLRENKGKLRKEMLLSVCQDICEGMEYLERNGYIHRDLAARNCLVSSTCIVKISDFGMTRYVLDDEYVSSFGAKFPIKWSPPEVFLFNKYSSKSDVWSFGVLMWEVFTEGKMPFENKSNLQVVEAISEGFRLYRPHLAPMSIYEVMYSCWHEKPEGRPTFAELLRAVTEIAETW
TESK1 (human), sequence (Q15569 whole entry, looked up): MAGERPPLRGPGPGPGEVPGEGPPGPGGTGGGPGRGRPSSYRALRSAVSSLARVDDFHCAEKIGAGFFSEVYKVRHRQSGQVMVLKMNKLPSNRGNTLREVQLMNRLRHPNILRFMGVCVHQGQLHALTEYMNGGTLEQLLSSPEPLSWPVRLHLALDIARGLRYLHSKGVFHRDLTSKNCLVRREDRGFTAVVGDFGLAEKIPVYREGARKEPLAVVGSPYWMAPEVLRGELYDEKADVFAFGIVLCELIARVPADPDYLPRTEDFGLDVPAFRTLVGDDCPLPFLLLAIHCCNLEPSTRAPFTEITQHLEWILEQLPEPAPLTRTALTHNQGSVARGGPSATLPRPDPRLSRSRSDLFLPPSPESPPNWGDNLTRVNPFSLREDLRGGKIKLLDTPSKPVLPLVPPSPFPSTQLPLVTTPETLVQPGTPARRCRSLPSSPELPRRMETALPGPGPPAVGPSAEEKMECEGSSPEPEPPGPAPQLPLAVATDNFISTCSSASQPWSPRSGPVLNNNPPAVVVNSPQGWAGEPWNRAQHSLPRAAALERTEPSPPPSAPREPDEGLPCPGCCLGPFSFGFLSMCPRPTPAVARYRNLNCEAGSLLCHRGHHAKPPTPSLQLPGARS
HIPK1 (human), sequence (Q86Z02 whole entry, looked up): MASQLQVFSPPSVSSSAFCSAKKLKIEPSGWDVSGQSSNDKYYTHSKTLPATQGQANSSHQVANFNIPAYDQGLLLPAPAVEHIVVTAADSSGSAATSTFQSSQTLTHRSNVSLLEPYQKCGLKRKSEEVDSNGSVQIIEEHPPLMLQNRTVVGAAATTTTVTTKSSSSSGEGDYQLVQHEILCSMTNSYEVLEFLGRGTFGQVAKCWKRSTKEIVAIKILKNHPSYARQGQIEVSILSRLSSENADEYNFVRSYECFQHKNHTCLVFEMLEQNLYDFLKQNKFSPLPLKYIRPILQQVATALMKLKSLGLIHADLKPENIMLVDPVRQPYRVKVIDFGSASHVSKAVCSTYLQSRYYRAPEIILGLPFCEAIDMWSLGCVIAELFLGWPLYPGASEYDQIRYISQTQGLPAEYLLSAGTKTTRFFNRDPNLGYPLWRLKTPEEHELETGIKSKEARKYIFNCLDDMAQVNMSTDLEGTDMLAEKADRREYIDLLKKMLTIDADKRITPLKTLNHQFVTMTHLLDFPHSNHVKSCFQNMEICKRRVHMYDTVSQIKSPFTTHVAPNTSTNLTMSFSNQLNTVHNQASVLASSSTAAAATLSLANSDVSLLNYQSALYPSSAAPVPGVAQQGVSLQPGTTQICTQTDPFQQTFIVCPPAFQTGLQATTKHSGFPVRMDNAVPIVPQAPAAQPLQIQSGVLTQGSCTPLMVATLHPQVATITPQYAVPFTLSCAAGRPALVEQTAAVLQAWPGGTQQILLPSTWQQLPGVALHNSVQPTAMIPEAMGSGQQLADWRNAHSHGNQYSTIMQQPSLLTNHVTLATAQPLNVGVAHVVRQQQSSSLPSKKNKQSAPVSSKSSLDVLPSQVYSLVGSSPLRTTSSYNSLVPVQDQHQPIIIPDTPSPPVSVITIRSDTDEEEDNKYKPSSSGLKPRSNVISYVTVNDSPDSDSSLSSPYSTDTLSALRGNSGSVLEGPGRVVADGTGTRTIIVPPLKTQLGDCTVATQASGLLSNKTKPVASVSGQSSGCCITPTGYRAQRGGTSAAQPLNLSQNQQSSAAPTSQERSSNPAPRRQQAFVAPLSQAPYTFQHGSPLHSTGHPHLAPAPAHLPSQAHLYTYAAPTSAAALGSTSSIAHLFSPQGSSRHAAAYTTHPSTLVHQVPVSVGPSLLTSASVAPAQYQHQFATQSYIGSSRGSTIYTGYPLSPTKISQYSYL
TNIK (human), sequence (Q9UKE5 whole entry, looked up): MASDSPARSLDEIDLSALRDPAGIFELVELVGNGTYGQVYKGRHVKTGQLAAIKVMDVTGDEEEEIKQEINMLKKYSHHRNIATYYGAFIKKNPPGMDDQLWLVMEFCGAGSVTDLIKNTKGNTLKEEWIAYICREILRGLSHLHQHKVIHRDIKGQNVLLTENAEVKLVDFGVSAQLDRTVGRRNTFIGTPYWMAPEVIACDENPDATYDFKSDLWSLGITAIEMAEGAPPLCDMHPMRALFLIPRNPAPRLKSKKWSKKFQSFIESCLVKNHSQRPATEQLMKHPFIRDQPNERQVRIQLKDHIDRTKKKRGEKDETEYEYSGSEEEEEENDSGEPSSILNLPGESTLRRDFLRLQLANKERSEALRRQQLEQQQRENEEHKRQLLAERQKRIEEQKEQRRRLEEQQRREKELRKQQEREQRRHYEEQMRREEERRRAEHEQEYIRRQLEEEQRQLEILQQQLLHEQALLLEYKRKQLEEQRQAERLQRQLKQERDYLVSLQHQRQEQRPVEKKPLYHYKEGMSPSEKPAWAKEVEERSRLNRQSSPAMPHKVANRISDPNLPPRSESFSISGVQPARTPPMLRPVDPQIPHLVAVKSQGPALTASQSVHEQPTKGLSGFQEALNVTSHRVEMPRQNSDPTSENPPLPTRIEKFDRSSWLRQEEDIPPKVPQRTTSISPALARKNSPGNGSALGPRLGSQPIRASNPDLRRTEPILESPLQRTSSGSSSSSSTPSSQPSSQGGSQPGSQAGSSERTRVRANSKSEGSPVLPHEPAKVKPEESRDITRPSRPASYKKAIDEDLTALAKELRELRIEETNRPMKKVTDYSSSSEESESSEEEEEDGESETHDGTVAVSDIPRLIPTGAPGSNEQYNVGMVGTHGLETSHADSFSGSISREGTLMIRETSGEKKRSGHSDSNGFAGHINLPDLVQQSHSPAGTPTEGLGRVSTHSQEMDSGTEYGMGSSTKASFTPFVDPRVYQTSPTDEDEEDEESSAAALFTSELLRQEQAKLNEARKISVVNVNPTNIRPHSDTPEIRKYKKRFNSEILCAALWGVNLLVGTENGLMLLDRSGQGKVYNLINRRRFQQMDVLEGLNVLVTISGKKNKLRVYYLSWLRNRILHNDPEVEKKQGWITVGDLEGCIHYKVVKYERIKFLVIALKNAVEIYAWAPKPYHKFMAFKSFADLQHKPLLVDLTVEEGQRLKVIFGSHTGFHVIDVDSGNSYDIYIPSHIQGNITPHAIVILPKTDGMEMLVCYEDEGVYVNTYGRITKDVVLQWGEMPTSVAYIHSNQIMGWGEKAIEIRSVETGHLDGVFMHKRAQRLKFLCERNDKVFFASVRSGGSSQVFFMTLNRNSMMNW
MAPK4 (human), sequence (P31152 whole entry, looked up): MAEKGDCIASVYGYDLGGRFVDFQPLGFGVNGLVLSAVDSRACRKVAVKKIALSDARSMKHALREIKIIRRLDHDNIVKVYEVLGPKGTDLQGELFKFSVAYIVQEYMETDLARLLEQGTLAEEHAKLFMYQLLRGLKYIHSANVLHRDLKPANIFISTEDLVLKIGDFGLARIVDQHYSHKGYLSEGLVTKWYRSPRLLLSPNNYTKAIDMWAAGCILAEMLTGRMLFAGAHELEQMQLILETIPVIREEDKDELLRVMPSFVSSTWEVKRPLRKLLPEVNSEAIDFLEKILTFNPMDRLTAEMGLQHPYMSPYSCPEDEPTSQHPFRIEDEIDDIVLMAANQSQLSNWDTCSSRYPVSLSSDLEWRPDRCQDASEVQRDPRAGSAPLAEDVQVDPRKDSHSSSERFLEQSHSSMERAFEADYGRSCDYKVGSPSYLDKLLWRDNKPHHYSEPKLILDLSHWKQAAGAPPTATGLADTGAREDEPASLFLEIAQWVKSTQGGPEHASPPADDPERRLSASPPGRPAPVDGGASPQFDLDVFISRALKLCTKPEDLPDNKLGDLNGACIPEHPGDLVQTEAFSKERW

N#Cc1ccc2ncnc(NCCc3ccc4ccccc4c3)c2c1
kinase still bound, per cent of control (CDC2L2 (human)): 100%
kinase still bound, per cent of control (HIPK1 (human)): 100%
kinase still bound, per cent of control (SIK3 (human)): 100%
kinase still bound, per cent of control (FLT1 (human)): 89%
kinase still bound, per cent of control (TNIK (human)): 97%
kinase still bound, per cent of control [1]: 60%
kinase still bound, per cent of control (NEK1 (human)): 100%
kinase still bound, per cent of control [2]: 100%
kinase still bound, per cent of control (PHKG2 (human)): 100%
kinase still bound, per cent of control (TLK1 (human)): 92%
kinase still bound, per cent of control (AAK1 (human)): 86%
kinase still bound, per cent of control (GRK1 (human)): 100%
kinase still bound, per cent of control (AXL (human)): 88%
kinase still bound, per cent of control (HCK (human)): 88%
kinase still bound, per cent of control (BLK (human)): 65%
kinase still bound, per cent of control [3]: 71%
kinase still bound, per cent of control (MAP3K13 (human)): 100%
kinase still bound, per cent of control (NUAK2 (human)): 77%
kinase still bound, per cent of control (STK32A (human)): 100%
kinase still bound, per cent of control (CLK4 (human)): 60%
kinase still bound, per cent of control (NEK4 (human)): 100%
kinase still bound, per cent of control (WEE2 (human)): 65%
kinase still bound, per cent of control [4]: 100%
kinase still bound, per cent of control (CAMK2D (human)): 100%
kinase still bound, per cent of control (MLTK (human)): 100%
kinase still bound, per cent of control (MERTK (human)): 93%
kinase still bound, per cent of control [5]: 100%
kinase still bound, per cent of control (PRKD2 (human)): 73%
kinase still bound, per cent of control (PRKD3 (human)): 99%
kinase still bound, per cent of control (NEK6 (human)): 96%
kinase still bound, per cent of control (DMPK (human)): 100%
kinase still bound, per cent of control (LATS2 (human)): 100%
kinase still bound, per cent of control (MAP2K7 (human)): 94%
kinase still bound, per cent of control (TESK1 (human)): 100%
kinase still bound, per cent of control (BTK (human)): 86%
kinase still bound, per cent of control (MAP4K5 (human)): 95%
kinase still bound, per cent of control (MAP3K9 (human)): 85%
kinase still bound, per cent of control (EIF2AK1 (human)): 100%
kinase still bound, per cent of control (STK10 (human)): 67%
kinase still bound, per cent of control (LATS1 (human)): 93%
kinase still bound, per cent of control (MAPK4 (human)): 87%
kinase still bound, per cent of control (TXK (human)): 94%
kinase still bound, per cent of control [6]: 95%
